Earlier results on two molecules are cited in patent US20230240292A1, “METHOD FOR GROWING PLANTS” (Taminco BV, priority 2020, published 2023).

Where two headings read alike, the source gives them in different places.

In one series the test system is cauliflower seedlings. The note with it: seedlings treated with 20 mM BABA.

Consider `CC(N)CC(=O)O` (racemic) [BABA, beta-aminobutyric acid], for which, in the series with cauliflower seedlings, the “Reduction in growth of cauliflower seedlings” value is reported as 14.7%. Besides, the “Root growth repression (in words)” value in the series with Tomato plants (seedlings treated with as low as 0.5 mM BABA) is “root growth repression was observed”.

As to `CC/C=C\C[C@H]1C(=O)CC[C@@H]1CC(=O)O` [JA, jasmonic acid], the “Root growth repression (in words)” value in the series on Tomato plants (seedlings treated with as low as 0.25 mM JA) is recorded as “root growth repression was observed”.
